Paper PMC5791972 (PLoS ONE, 2018)
Read-outs that look alike come from different tables or passages of the source.

How the values were obtained:
BLT1 (LTB4) (h) = target: T1, BLT1 (LTB4) (h) (Homo sapiens, UniProt Q15722); type: binding; conditions: 1.0E-06 M
T1 construct: host or cells: CHO cells

p38α kinase (h) = p38α kinase (h) (Homo sapiens, UniProt Q16539); assay: enzyme assay; type: biochemical; conditions: 1.0E-06 M
5-HT2A (h) = target: T2, 5-HT2A (h) (Homo sapiens, UniProt P28223); type: binding
T2 construct: host or cells: HEK-293 cells
T2 sequence (P28223 whole entry): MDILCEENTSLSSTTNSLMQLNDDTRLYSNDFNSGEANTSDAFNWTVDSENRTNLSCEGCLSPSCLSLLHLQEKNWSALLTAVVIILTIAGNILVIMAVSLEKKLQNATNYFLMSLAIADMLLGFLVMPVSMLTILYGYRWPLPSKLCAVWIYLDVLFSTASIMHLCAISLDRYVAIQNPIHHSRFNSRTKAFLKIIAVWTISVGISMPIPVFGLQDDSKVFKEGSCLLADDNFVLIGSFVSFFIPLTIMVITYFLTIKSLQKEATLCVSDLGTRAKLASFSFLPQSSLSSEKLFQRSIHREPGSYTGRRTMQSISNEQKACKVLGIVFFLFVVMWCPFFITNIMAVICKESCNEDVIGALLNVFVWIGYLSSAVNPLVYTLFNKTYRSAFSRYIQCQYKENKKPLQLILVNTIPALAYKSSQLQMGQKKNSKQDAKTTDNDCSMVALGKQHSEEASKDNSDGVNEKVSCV

[1] = test system: Ca2+ channel (L, verapamil site) (phenylalkylamine); type: binding, rat; conditions: 1.0E-06 M
NK2 (h) = target: T3, NK2 (h) (Homo sapiens, UniProt P21452); type: binding; conditions: 1.0E-06 M
T3 construct: host or cells: CHO cells
T3 sequence (P21452 1-398): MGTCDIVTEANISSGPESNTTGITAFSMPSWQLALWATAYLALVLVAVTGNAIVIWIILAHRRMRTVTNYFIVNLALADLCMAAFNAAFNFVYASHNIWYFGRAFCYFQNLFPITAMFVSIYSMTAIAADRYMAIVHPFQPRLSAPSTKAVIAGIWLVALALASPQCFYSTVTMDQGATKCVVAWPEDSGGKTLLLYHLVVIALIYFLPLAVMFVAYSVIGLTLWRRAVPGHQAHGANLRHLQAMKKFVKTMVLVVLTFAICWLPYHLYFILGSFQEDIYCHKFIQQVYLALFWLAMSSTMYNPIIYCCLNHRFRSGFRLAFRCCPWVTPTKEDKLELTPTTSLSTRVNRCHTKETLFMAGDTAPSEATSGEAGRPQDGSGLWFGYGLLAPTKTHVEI

TNF-α (h) = type: binding, human; conditions: 1.0E-06 M
NMDA = type: binding, rat; conditions: 1.0E-06 M
MT1 (ML1A) (h) = target: T4, MT1 (ML1A) (h) (Homo sapiens, UniProt P48039); type: binding; conditions: 1.0E-06 M
T4 construct: host or cells: CHO cells
T4 sequence (P48039 whole entry): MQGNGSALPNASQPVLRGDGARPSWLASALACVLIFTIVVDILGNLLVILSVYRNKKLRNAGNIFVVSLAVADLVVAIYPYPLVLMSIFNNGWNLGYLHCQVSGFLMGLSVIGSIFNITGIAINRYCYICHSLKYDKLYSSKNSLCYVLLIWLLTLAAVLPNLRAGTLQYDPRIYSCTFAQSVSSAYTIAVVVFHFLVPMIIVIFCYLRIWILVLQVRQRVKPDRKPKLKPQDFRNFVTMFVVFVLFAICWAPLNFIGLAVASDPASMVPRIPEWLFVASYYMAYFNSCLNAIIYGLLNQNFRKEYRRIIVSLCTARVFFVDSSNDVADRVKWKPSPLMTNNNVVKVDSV

mTRPC4 = target: T5, mTRPC4 (Mus musculus, UniProt Q9QUQ5); assay: Whole-cell manual patch clamp; type: cell-based; conditions: 10 µM carbachol /M1R
T5 construct: The cDNAs for various full-length ion channels were subcloned into pcDNA5/TO; expressed in transfected cells
T5 sequence (Q9QUQ5 1-890 isoform Q9QUQ5-2): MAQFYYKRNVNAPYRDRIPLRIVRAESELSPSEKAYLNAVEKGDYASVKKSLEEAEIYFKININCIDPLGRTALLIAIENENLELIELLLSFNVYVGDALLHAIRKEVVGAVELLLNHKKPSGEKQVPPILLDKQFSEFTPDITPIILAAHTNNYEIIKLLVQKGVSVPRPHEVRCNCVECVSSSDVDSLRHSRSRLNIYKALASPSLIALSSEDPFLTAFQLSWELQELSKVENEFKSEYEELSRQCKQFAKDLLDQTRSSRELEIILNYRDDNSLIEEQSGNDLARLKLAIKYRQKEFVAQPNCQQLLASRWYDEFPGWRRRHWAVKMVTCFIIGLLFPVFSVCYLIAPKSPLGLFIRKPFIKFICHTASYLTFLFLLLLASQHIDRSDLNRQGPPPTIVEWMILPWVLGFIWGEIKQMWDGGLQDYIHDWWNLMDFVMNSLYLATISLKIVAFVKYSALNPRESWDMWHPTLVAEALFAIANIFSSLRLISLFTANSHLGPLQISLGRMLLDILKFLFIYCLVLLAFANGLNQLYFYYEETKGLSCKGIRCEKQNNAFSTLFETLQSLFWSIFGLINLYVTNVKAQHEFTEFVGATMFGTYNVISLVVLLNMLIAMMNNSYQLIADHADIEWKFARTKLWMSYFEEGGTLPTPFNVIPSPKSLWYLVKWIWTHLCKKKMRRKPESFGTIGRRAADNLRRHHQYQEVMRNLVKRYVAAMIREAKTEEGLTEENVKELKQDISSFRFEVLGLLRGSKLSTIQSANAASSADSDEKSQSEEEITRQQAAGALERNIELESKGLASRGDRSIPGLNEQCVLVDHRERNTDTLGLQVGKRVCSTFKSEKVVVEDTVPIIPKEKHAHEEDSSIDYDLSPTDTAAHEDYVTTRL

ETA (h) = target: T6, ETA (h) (Homo sapiens, UniProt P25101); type: binding; conditions: 1.0E-06 M
T6 construct: host or cells: CHO cells
T6 sequence (P25101 21-427): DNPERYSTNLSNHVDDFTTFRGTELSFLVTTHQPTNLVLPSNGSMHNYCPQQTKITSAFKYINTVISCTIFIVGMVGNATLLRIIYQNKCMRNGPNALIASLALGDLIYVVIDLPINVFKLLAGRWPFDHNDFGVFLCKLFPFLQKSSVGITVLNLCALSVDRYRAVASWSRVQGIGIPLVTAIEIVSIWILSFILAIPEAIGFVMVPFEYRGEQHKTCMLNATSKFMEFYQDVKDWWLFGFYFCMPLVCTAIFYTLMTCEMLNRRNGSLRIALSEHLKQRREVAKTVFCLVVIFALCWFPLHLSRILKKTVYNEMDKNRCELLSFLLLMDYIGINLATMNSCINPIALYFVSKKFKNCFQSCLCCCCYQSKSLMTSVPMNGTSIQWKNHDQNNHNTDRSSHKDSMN

AR (h) = target: T7, AR (h) (Homo sapiens, UniProt P10275, T878A); type: binding; conditions: 1.0E-06 M
T7 construct: AR (h) LNCaP cells [3H]methyltrienolone; host or cells: LNCaP cells (cytosol)
T7 sequence (P10275 1-920 T878A): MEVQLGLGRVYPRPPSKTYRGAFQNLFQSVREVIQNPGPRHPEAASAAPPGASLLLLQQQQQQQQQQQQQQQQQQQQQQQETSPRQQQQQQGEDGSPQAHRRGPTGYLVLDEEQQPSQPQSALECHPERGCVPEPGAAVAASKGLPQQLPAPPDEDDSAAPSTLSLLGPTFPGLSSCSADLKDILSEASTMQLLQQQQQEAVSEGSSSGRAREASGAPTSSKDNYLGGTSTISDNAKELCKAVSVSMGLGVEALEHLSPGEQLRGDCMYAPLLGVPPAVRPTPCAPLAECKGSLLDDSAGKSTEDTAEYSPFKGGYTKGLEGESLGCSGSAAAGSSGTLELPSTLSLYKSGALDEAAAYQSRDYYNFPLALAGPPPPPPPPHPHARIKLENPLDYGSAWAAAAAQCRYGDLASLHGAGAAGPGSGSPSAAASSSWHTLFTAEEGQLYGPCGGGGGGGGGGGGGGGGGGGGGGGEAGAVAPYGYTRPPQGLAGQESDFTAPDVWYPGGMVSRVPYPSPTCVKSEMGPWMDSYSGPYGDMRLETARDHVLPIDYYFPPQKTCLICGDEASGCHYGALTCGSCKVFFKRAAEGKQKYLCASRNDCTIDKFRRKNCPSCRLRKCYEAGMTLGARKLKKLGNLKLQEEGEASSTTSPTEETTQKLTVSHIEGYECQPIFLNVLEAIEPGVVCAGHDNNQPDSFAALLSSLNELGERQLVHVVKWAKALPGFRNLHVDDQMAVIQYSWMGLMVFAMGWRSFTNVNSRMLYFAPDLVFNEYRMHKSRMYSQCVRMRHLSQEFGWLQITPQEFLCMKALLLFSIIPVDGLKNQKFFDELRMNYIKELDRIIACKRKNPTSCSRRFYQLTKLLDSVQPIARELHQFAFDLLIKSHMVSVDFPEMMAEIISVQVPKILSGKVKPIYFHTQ

T1 sequence (Q15722 whole entry): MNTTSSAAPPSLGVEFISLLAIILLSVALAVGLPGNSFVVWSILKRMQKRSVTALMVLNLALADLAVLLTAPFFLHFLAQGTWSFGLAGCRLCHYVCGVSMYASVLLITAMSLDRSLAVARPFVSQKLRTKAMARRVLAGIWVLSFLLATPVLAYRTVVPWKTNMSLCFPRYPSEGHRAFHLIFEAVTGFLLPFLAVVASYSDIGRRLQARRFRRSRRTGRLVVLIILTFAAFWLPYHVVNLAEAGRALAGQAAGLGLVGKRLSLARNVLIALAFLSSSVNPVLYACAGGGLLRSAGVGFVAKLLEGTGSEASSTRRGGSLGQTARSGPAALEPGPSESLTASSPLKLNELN
p38α kinase (h), sequence (Q16539 whole entry): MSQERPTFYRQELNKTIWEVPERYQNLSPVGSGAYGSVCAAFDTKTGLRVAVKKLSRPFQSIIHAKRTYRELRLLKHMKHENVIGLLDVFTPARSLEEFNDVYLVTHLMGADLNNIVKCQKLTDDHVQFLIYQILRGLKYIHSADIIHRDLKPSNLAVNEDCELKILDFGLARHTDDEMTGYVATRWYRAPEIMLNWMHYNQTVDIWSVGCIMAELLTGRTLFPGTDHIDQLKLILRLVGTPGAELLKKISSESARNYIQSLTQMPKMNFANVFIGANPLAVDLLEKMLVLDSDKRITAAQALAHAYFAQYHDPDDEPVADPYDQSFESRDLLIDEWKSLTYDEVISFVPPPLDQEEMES

Cn1c(=O)n(CCCO)c(=O)c2c1nc(Oc1cccc(OC(F)(F)F)c1)n2Cc1ccc(Cl)cc1 [HC-608]
inhibition at 1 µM (BLT1 (LTB4) (h); read-out: % Inhibition 1st): -2.9%
inhibition at 1 µM (BLT1 (LTB4) (h); read-out: % Inhibition 2nd): 13.4%
inhibition at 1 µM (BLT1 (LTB4) (h); read-out: % Inhibition Mean): 5.3%
% Inhibition 1st (p38α kinase (h)): -0.9%
% Inhibition 2nd (p38α kinase (h)): -1.2%
% Inhibition Mean (p38α kinase (h)): -1.1%
inhibition at 1 µM (5-HT2A (h); read-out: % Inhibition 1st): -4.3%
inhibition at 1 µM (5-HT2A (h); read-out: % Inhibition 2nd): 6.9%
inhibition at 1 µM (5-HT2A (h); read-out: % Inhibition Mean): 1.3%
% Inhibition 1st [1]: 2.3%
% Inhibition 2nd [1]: 14.5%
% Inhibition Mean [1]: 8.4%
inhibition at 1 µM (NK2 (h); read-out: % Inhibition 1st): -10%
inhibition at 1 µM (NK2 (h); read-out: % Inhibition 2nd): 18.9%
inhibition at 1 µM (NK2 (h); read-out: % Inhibition Mean): 4.4%
% Inhibition 1st (TNF-α (h)): 8.8%
% Inhibition 2nd (TNF-α (h)): -8.6%
% Inhibition Mean (TNF-α (h)): 0.1%
% Inhibition 1st (NMDA): 19%
% Inhibition 2nd (NMDA): 3.2%
% Inhibition Mean (NMDA): 11.1%
inhibition at 1 µM (MT1 (ML1A) (h); read-out: % Inhibition 1st): 2.2%
inhibition at 1 µM (MT1 (ML1A) (h); read-out: % Inhibition 2nd): -0.9%
inhibition at 1 µM (MT1 (ML1A) (h); read-out: % Inhibition Mean): 0.7%
IC50 (mTRPC4): ~0.45 nM
inhibition at 1 µM (ETA (h); read-out: % Inhibition 1st): -33.9%
inhibition at 1 µM (ETA (h); read-out: % Inhibition 2nd): 6.7%
inhibition at 1 µM (ETA (h); read-out: % Inhibition Mean): -13.6%

Cn1c(=O)n(CCCO)c(=O)c2c1nc(Oc1cccc(Cl)c1)n2Cc1ccc(Cl)cc1 [HC-070]
inhibition at 1 µM (AR (h); read-out: % Inhibition 1st): 11.1%
inhibition at 1 µM (AR (h); read-out: % Inhibition 2nd): 3.2%
inhibition at 1 µM (AR (h); read-out: % Inhibition Mean): 7.1%
